Source: ChEMBL document CHEMBL1201862, “PubChem BioAssay data set” (2004)
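Results reflect a 48-hour exposure of cells in 96-well plates to compound at five concentrations. GI50 marks 50% less growth.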 Calls of active or inactive are those of the source. Rule as the data show it: active = GI50 up to about 1.1 µM and inactive = higher.

Assays:
Test in all cases: NCI-60 cell line screen, 48 h
786-0 = system: 786-0
A498 = system: A498
A549 = system: A549
ACHN = system: ACHN
BT-549 = system: BT-549
CAKI-1 = system: CAKI-1
CCRF-CEM = system: CCRF-CEM
COLO 205 = system: COLO 205
DU-145 = system: DU-145
EKVX = system: EKVX
HCC 2998 = system: HCC 2998
HCT-116 = system: HCT-116
HCT-15 = system: HCT-15
HL-60 = system: HL-60
HOP-62 = system: HOP-62
HOP-92 = system: HOP-92
HT-29 = system: HT-29
Hs-578T = system: Hs-578T
IGROV-1 = system: IGROV-1
K562 = system: K562
KM12 = system: KM12
LOX IMVI = system: LOX IMVI
M14 = system: M14
MCF7 = system: MCF7
MDA-MB-231 = system: MDA-MB-231
MDA-MB-435 = system: MDA-MB-435
MDA-N = system: MDA-N
MOLT-4 = system: MOLT-4
Malme-3M = system: Malme-3M
NCI-H23 = system: NCI-H23
NCI-H460 = system: NCI-H460
NCI-H522 = system: NCI-H522
NCI/ADR-RES = system: NCI/ADR-RES
OVCAR-3 = system: OVCAR-3
OVCAR-4 = system: OVCAR-4
OVCAR-5 = system: OVCAR-5
OVCAR-8 = system: OVCAR-8
PC-3 = system: PC-3
RPMI-8226 = system: RPMI-8226
RXF 393 = system: RXF 393
SF-268 = system: SF-268
SF-539 = system: SF-539
SK-MEL-28 = system: SK-MEL-28
SK-MEL-2 = system: SK-MEL-2
SK-MEL-5 = system: SK-MEL-5
SK-OV-3 = system: SK-OV-3
SN12C = system: SN12C
SNB-19 = system: SNB-19
SNB-75 = system: SNB-75
SW-620 = system: SW-620
T47D = system: T47D
TK-10 = system: TK-10
U-251 = system: U-251
UACC-257 = system: UACC-257
UACC-62 = system: UACC-62
UO-31 = system: UO-31

O=C(O)c1ccccc1C(=O)Nc1cc2c(cc1Br)-c1ccccc1C2=O
GI50 (786-0): > 100 µM (inactive)
GI50 (A498): > 100 µM (inactive)
GI50 (A549): > 100 µM (inactive)
GI50 (ACHN): > 100 µM (inactive)
GI50 (BT-549): > 100 µM (inactive)
GI50 (CAKI-1): > 100 µM (inactive)
GI50 (CCRF-CEM): 45.9 µM (inactive)
GI50 (COLO 205): 68.5 µM (inactive)
GI50 (DU-145): 64.4 µM (inactive)
GI50 (EKVX): > 100 µM (inactive)
GI50 (HCC 2998): 23.2 µM (inactive)
GI50 (HCT-116): > 100 µM (inactive)
GI50 (HCT-15): > 100 µM
GI50 (HL-60): 92.5 µM (inactive)
GI50 (HOP-62): > 100 µM (inactive)
GI50 (HOP-92): 48.1 µM (inactive)
GI50 (HT-29): > 100 µM (inactive)
GI50 (Hs-578T): 91.2 µM (inactive)
GI50 (IGROV-1): > 100 µM (inactive)
GI50 (K562): > 100 µM (inactive)
GI50 (KM12): > 100 µM (inactive)
GI50 (LOX IMVI): 81.1 µM (inactive)
GI50 (M14): > 100 µM (inactive)
GI50 (MCF7): > 100 µM (inactive)
GI50 (MDA-MB-231): > 100 µM (inactive)
GI50 (MDA-MB-435): > 100 µM (inactive)
GI50 (MDA-N): > 100 µM (inactive)
GI50 (MOLT-4): 79.8 µM (inactive)
GI50 (Malme-3M): > 100 µM (inactive)
GI50 (NCI-H23): > 100 µM (inactive)
GI50 (NCI-H460): > 100 µM (inactive)
GI50 (NCI-H522): 59.7 µM (inactive)
GI50 (NCI/ADR-RES): > 100 µM (inactive)
GI50 (OVCAR-3): 40.6 µM (inactive)
GI50 (OVCAR-4): > 100 µM (inactive)
GI50 (OVCAR-5): > 100 µM (inactive)
GI50 (OVCAR-8): > 100 µM (inactive)
GI50 (PC-3): > 100 µM (inactive)
GI50 (RPMI-8226): > 100 µM (inactive)
GI50 (RXF 393): 48 µM (inactive)
GI50 (SF-268): > 100 µM (inactive)
GI50 (SF-539): > 100 µM (inactive)
GI50 (SK-MEL-28): 6.61 µM (inactive)
GI50 (SK-MEL-2): > 100 µM (inactive)
GI50 (SK-MEL-5): > 100 µM (inactive)
GI50 (SK-OV-3): > 100 µM (inactive)
GI50 (SN12C): > 100 µM (inactive)
GI50 (SNB-19): > 100 µM (inactive)
GI50 (SNB-75): 47.5 µM (inactive)
GI50 (SW-620): > 100 µM (inactive)
GI50 (T47D): > 100 µM (inactive)
GI50 (TK-10): > 100 µM (inactive)
GI50 (U-251): 87.5 µM (inactive)
GI50 (UACC-257): > 100 µM (inactive)
GI50 (UACC-62): > 100 µM (inactive)
GI50 (UO-31): > 100 µM (inactive)
